Data reported in patent US7390783B2, “Charged phospholipid compositions and methods for their use” (Ottawa Heart Institute Research Corporation, priority 2000, dated 2008).

Key:
Human plasma = experiment: Plasma clotting time (prothrombin time); format: biochemical; settings: human plasma incubated with increasing amounts of vesicles, 24 h at 4° C.
Experimental: Referring now to FIG. 11, there is shown the effect of charged lipid on blood coagulation. Human plasma was incubated with various amounts of uncharged vesicles, phosphatidylcholine (PC) or anionic vesicles, phosphatidylinositol (PI), for 24 h at 4° C. Prothrombin time was then measured with the use of a commercially available kit.

[^3H]-FC in plasma = Clearance of [^3H]-FC from the blood of a rabbit; format: in vivo
Experimental: 1-palmitoyl-2-oleoyl-phosphatidylcholine (PC) and 1-palmitoyl-2-oleoyl phosphatidylinositol (PI) vesicles are prepared by drying to completion 40 μmol of each lipid into a 12×75 mm culture tube under N2. The lipids are solubilized in 3 mL of sterile saline comprising 150 mM sodium chloride (pH 7.2) by sonication for 1 minute at constant duty cycle. The vesicles are incubated at 37° C. for 10 minutes and then sonicated at a high output for 4 minutes in 10° C. water bath under N2. In order to determine the rate of clearance of cholesterol from the test animals (rabbits), a radioactive tracer is added to the vesicle preparations prior to injection into the rabbit. 200 μL of 1 μCi/μmL [^3H]-FC is dried into a 12×75 mm culture tube with 40 μmol of PI or POPC. 3 ml of PBS is added to the dried lipids and the mixture is sonicated as described above. This tracer/vesicle preparation is injected and then 5 min later, the PI or PC vesicles were injected and blood is sampled as described below.
Male New Zealand white rabbits (3.5-4.0 kg) are fasted for 12 hours prior to injection and remain fasted until after data for the final time point is taken. Rabbits have free access to water during this time. A catheter is inserted into the marginal ear vein and blood samples are collected into tubes containing 7.5% (K3) EDTA solution at the desired time points. A pre-injection blood sample is taken and the vesicle solution of either PI (n=4), or PC (n=2) or saline (n=1) is injected into the marginal ear vein. A sample of blood is removed at 10, 30 min, 1, 3, 6 and 24 h after the injection. All blood samples are placed on ice and then centrifuged at 3000 rpm for 15 min at 4° C. to separate the plasma. In order to ensure that lecithin:cholesterol acyl transferase (LCAT) is inhibited in the stored plasma, iodoacetamide (150 mM) is added to plasma samples as taught by Guerin et al. (1994).
Referring now to FIG. 5, there is shown the clearance of [^3H]-FC at various times after rabbits are injected with [^3H]-FC and either PI or PC vesicles. […] In comparison, rabbits injected with PC contain approximately 90% of the injected radioactivity after 1 h.

[1] = system: faecal cholesterol output; experiment: Faecal cholesterol excretion after PI or PC injection; format: in vivo, rabbit
Experimental: Rabbits are injected with 40 μmol PI or PC vesicles containing 400 μCi […]. Animals are sacrificed at 30 min, and bile is aspirated from the gall bladder. In addition the livers are harvested, homogenized and tissue radioactivity determined. Sterol excretion in the faeces is measured similarly except that faecal cholesterol levels are measured over a time period of 96 hours. Referring now to FIG. 7, there is graphically depicted the effect of PI injection associated with sterol excretion. […] PC injection into a rabbit had no effect on cholesterol excretion, while PI injection enhanced faecal cholesterol output by about 300% at 2 days post injection. The increase in cholesterol output returned to normal by about day 4.

[2] = system: VLDL, LDL and HDL in human plasma; experiment: Lipoprotein charge in human plasma incubated with PI or DOTAP vesicles; format: biochemical; settings: 24 h at 4° C.; for Lipoprotein Surface Charge LDL: no lipid 2.5; for Lipoprotein Surface Charge VLDL: no lipid 5.5; for Lipoprotein Surface Charge HDL: no lipid 11.8
Experimental: Different concentrations as shown below of negatively charged phospholipid (PI) or positively charged phospholipid (DOTAP) were added to human plasma and the surface charge on the lipoproteins was determined. The human plasma was incubated with PI or dioleoyl trimethylammonium-propane (DOTAP) vesicles for 24 h at 4° C. and then electrophoresed on 0.5% agarose. Lipoprotein charge was calculated from electrokinetic analyses.

[3] = system: HDL, LDL and VLDL cholesterol; experiment: PI injections into hypercholesterolemic (cholesterol-fed) rabbits: lipoprotein cholesterol levels; format: in vivo, rabbit; settings: 36 mg 2× daily for 7 days
Experimental: Referring now to FIG. 8, there is graphically depicted the effect of PI injection on lipoprotein cholesterol levels in hypercholesterolemic rabbits. Rabbits were fed a diet enriched in cholesterol for a period of 4 weeks to increase the levels of cholesterol in the LDL and VLDL particles in the bloodstream. One half of the study rabbits were then injected with 36 mg of PI 2× daily for 7 days. On day 7, plasma samples were drawn and lipoproteins were fractionated by size exclusion chromatography on two Superose 6 columns. Shown are gel filtration profiles for the different rabbit plasmas, which illustrate the levels of cholesterol in the various lipoprotein fractions. The untreated hypercholesterolemic rabbit plasma sample is shown to have high levels of LDL and VLDL cholesterol. PI injections caused a greater than 7-fold reduction in VLDL cholesterol and about a 2.5-fold reduction in LDL cholesterol levels over the 7 day period. […] PI therefore can be used to treat hypercholesterolemia and reduce plasma LDL and VLDL cholesterol levels.

lipoprotein lipase = target: T1, lipoprotein lipase (Homo sapiens, UniProt P06858); experiment: Lipid hydrolysis by lipoprotein lipase in plasma enriched with charged lipid; format: biochemical; settings: not shown
T1 sequence (P06858 28-475): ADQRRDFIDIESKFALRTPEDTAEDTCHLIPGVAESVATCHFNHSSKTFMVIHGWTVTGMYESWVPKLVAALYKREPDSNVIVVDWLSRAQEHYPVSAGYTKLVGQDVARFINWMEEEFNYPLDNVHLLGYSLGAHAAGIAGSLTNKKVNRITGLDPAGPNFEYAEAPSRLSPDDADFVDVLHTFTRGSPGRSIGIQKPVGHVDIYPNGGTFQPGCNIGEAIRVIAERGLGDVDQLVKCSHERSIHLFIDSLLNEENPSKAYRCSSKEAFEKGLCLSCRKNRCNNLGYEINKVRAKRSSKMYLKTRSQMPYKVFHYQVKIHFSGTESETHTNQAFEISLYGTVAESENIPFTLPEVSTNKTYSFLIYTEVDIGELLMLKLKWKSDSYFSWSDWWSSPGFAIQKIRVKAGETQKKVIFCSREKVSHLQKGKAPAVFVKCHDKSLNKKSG
Excerpt: Referring now to FIG. 10, there is shown the effect of lipoprotein charge on hepatic lipase. High density lipoprotein particles were enriched to contain various amounts of anionic or cationic lipids and then characterized as substrates for pure human hepatic lipase. Decreasing the net negative charge on the lipoprotein was associated with a reduction in the lipolytic activity of is hepatic lipase. Lipoprotein charge can also be used to regulate lipoprotein lipase. […] Lipid hydrolysis by hepatic or lipoprotein lipase can therefore be affected by alterations in the charge properties of plasma lipoproteins.

With CCCCCCCC/C=C\CCCCCCCC(=O)O[C@H](COC(=O)CCCCCCCCCCCCCCC)COP(=O)(O)O[C@@H]1[C@H](O)[C@H](O)[C@@H](O)[C@H](O)[C@H]1O [PI, 1-palmitoyl-2-oleoyl phosphatidylinositol] the “effect on plasma clotting time (prothrombin time)” value (Human plasma) was “caused an inhibition to the formation of prothrombin”, the “[^3H]-FC in plasma, of the initial dose” value ([^3H]-FC in plasma; after about 1 h) was “about 15%” and the “half-life of [^3H]-FC shorter than for PC injected rabbits” value ([^3H]-FC in plasma; rabbit, in vivo) was “about 30 fold”. The “faecal cholesterol output enhanced by” value ([1]; 2 days post injection) was “about 300%”, the “increase in cholesterol output returned to normal by” value ([1]; rabbit, in vivo) was about 4 days and the “Lipoprotein Surface Charge LDL” value ([2]; 5 mg/ml) was 2.9 -mV. The “Lipoprotein Surface Charge VLDL” value ([2]; 5 mg/ml) was 6.3 -mV, the “Lipoprotein Surface Charge HDL” value ([2]; 5 mg/ml) was 12.4 -mV and the “Lipoprotein Surface Charge LDL” value ([2]; 10 mg/ml) was 3.3 -mV. The “Lipoprotein Surface Charge VLDL” value ([2]; 10 mg/ml) was 6.8 -mV, the “Lipoprotein Surface Charge HDL” value ([2]; 10 mg/ml) was 12.8 -mV and the “Lipoprotein Surface Charge LDL” value ([2]; 50 mg/ml) was 3.4 -mV. The “Lipoprotein Surface Charge VLDL” value ([2]; 50 mg/ml) was 6.9 -mV, the “Lipoprotein Surface Charge HDL” value ([2]; 50 mg/ml) was 13.2 -mV and the “Lipoprotein Surface Charge LDL” value ([2]; 100 mg/ml) was 3.6 -mV. For the same compound, the “Lipoprotein Surface Charge VLDL” value ([2]; 100 mg/ml) was 7.1 -mV, the “Lipoprotein Surface Charge HDL” value ([2]; 100 mg/ml) was 13.4 -mV and the “effect on amount of cholesterol in the HDL particles” value [3] was “slightly increased”. For the same compound, the “reduction in LDL cholesterol levels” value [3] was about 2.5 fold, the “reduction in VLDL cholesterol” value [3] was “greater than 7 fold” and the “effect on lipid hydrolysis by lipoprotein lipase” value (lipoprotein lipase) was “stimulate lipid hydrolysis”.
